Data on 13 compounds can be found in patent US20090186111A1, “Novel Bacteria and Pharmaceutically Active Products Obtained Therefrom” (priority 2004, published 2009).

For the assay, the system named is S. aureus LSLT1111. Nature of the assay: Antibiogram of S. aureus LSLT1111.

For `CN(C)[C@@H]1C(=O)C(C(N)=O)=C(O)[C@@]2(O)C(=O)C3=C(O)c4c(O)cccc4[C@@](C)(O)[C@H]3C[C@@H]12` [Tetracyclin], the “Diameter of clear area” value is recorded as 19.8 mm and the Sensitivity to antibiotic result is listed as “Sensitive”.
For Sulpha/trimethoprim, the “Diameter of clear area” value was 18.8 mm and the Sensitivity to antibiotic result was “Sensitive”.
For `CCC[C@@H]1C[C@@H](C(=O)N[C@@H]([C@H]2O[C@H](SC)[C@H](O)[C@@H](O)[C@H]2O)[C@@H](C)O)N(C)C1` [Lincomycin], in that order: 16.7 mm and “Resistant/Sensitive”.
`O=C(N[C@H](CO)[C@H](O)c1ccc([N+](=O)[O-])cc1)C(Cl)Cl` [Chloramphenicol]: the “Diameter of clear area” value is listed as 18.6 mm and the Sensitivity to antibiotic result is on record as “Sensitive”.
For `CN[C@H](CC(C)C)C(=O)N[C@H]1C(=O)N[C@@H](CC(N)=O)C(=O)N[C@H]2C(=O)N[C@H]3C(=O)N[C@H](C(=O)N[C@H](C(=O)O)c4cc(O)cc(O)c4-c4cc3ccc4O)[C@H](O)c3ccc(c(Cl)c3)Oc3cc2cc(c3O[C@@H]2O[C@H](CO)[C@@H](O)[C@H](O)[C@H]2O[C@H]2C[C@](C)(N)[C@H](O)[C@H](C)O2)Oc2ccc(cc2Cl)[C@H]1O` [Vancomycin], in that order: 11.9 mm and “Sensitive”.
On the same counts, the results for Amox. Clav. ac are 28.0 mm and “Sensitive”.
As to Penicillin, the “Diameter of clear area” value amounted to 9.0 mm and the Sensitivity to antibiotic result is “Resistant”.
On the same counts, the results for `CC[C@H]1OC(=O)[C@H](C)[C@@H](O[C@H]2C[C@@](C)(OC)[C@@H](O)[C@H](C)O2)[C@H](C)[C@@H](O[C@@H]2O[C@H](C)C[C@H](N(C)C)[C@H]2O)[C@](C)(O)C[C@@H](C)C(=O)[C@H](C)[C@@H](O)[C@]1(C)O` [Erythromycin] are 17.3 mm and “Resistant/Sensitive”.
On the same counts, the results for Neomycin are 14.7 mm and “Resistant/Sensitive”.
With Gentamicin, the “Diameter of clear area” value turned out to be 16.6 mm and the Sensitivity to antibiotic entry was “Sensitive”.
On the same counts, the results for `CC(=O)OCC1=C(C(=O)O)N2C(=O)[C@@H](NC(=O)Cc3cccs3)[C@H]2SC1` [Cephalothin] are 28.8 mm and “Sensitive”.
For `CC1(C)S[C@@H]2[C@H](NC(=O)[C@H](N)c3ccccc3)C(=O)N2[C@H]1C(=O)O` [Ampicillin], in that order: 12.6 mm and “Resistant”.
Regarding `COc1cccc(OC)c1C(=O)N[C@@H]1C(=O)N2[C@@H]1SC(C)(C)[C@@H]2C(=O)O` [Meticillin], the “Diameter of clear area” value was found to be 23.3 mm and the Sensitivity to antibiotic entry is “Sensitive”.
